Assay results from ChEMBL document CHEMBL3301546, “MMV Malaria Box yeast growth screening”.

Legend:
Format in all cases: functional
Saccharomyces cerevisiae [1] = assay: (§1) MMV: Growth assays were conducted using the prototrophic S. cerevisiae strain JHY222. Each MMV compound (0.1 mM) was tested in rich media containing dextrose as a carbon source (Yeast Extract, Peptone, Dextrose; YPD). The growth rate in the presence of each MMV compound was calculated as follows: (i) the first 10 OD readings were averaged and subtracted from all OD readings of the corresponding curve to set the baseline of the growth curve to zero, and (ii) the area under the curve (AUC) was then calculated as the sum of all OD readings. […] A relative growth value was calculated as follows: AUC(DRUG) - AUC(DMSO)/AUC(DMSO); where AUC(DMSO) represents growth measured in a DMSO control well that was on the same microtiter plate of the drug-treated culture.
Saccharomyces cerevisiae [2] = assay: as §1, with “minimal” for “rich”, “Nitrogen Base,” for “Extract, Peptone,”, “YNBD).” for “YPD).”
Saccharomyces cerevisiae [3] = assay: as §1, with “minimal” for “rich”, “ethanol and glycerol” for “dextrose”, “as” for “as a”, “sources” for “source”, “Nitrogen Base, Ethanol, Glycerol; YNBEG).” for “Extract, Peptone, Dextrose; YPD).”

| SMILES | Relative Growth (Saccharomyces cerevisiae [1]) | Relative Growth (Saccharomyces cerevisiae [2]) | Relative Growth (Saccharomyces cerevisiae [3]) |
| --- | --- | --- | --- |
| CCOc1ccccc1NC(=O)CN1CCN(C(=O)c2ccco2)CC1 | -0.0315 | 0.1567 | -0.0386 |
| COc1ccc(C2c3ccc4ccccc4c3Oc3ncn(CCCn4ccnc4)c(=N)c32)cc1OC (configuration not stated) | 0.015 | -0.111 | 0.1296 |
| CCCN(CCC)CC(O)COc1ccccc1C(=O)Nc1ccccc1 (configuration not stated) | -0.0395 | 0.0118 | 0.0655 |
| COc1ccc(OC)c(C2C3=C(CC(C)(C)CC3=O)N(c3ccc(Cl)c(Cl)c3)C3=C2C(=O)CC(C)(C)C3)c1 | -0.0143 | -0.0153 | -0.1129 |
| COc1cc(OC)cc(N2C(=O)N(Cc3ccc(C(C)(C)C)cc3)c3ccccc3S2(=O)=O)c1 | -0.7249 | 0.0008 | -0.0128 |
| COc1ccc(CN2CCCC(C(=O)c3ccc(C(F)(F)F)cc3)C2)c(O)c1 (configuration not stated) | -0.2476 | -0.4404 | -0.9168 |
| FC(F)(F)c1cccc(Nc2nc3ccccc3nc2Nc2cccc(C(F)(F)F)c2)c1 | -0.0449 | -0.0009 | -0.1177 |
| Cc1c(C)n(Cc2ccc(F)cc2)c2ccc(C(=O)NCc3ccco3)cc12 | -0.5565 | -0.1235 | -1.0264 |
| CN(C)c1ccc(-c2nc3cc(N)ccc3[nH]2)cc1 | 0.2129 | -0.0068 | 0.1829 |
| COc1ccc2c(c1)C1(Nc3ccccc3-c3nc4ccccc4n31)C(=O)N2 (configuration not stated) | -0.0036 | 0.0329 | -0.0059 |
| COc1ccc(-n2ccnc2SCC(=O)Nc2cc(C)ccc2C)c(OC)c1 | -0.0469 | -0.0529 | 0.0762 |
| CCOc1ccc(Nc2c3ccccc3nc3ccccc23)cc1.Cl | -0.0047 | 0.0198 | 0.0301 |
| Oc1c2c(nc3cc(-c4ccccc4)nn13)CCCC2 | -0.4545 | 0.0363 | -0.0208 |
| CC(C)=CCN1CCC(C(=O)Nc2ccc(-c3nc4ccccc4[nH]3)cc2)CC1 | -0.0484 | 0.0091 | 0.1138 |
| O=C1c2ccccc2-c2nnc(-c3ccc(Br)cc3)cc21 | -0.0452 | 0.0312 | 0.1282 |
| O=C(Nc1ccc(Cl)c(Cl)c1)Nc1ccc(Cl)c(Cl)c1 | -0.0117 | 0.0087 | 0.0859 |
| Cc1ccc(-c2cc3nc4c(c(O)n3n2)CCCC4)cc1 | -0.3245 | -1.0172 | -1.0646 |
| CCCCc1c(CCC)c(=N)c2ccccc2n1C.I | -0.0798 | 0.0105 | 0.0643 |
| CCCCCn1c(=N)n(CC(O)COc2cccc(C)c2)c2ccccc21.Cl (configuration not stated) | 0.0144 | -0.2633 | -0.7976 |
| COc1ccc(Nc2nc(NCc3ccccc3)c3ccccc3n2)cc1 | 0.0094 | 0.0331 | -0.0366 |
| CCOc1c(Cl)cc(CNCC(O)c2ccccc2)cc1OC (configuration not stated) | -0.0592 | 0.0136 | -0.2647 |
| C=CC12CCN(CC1)C(C(O)c1ccnc3ccc(OC)cc13)C2.Cl (configuration not stated) | -0.0044 | 0.1593 | 0.1178 |

| SMILES | Relative Growth (Saccharomyces cerevisiae [1]) | Relative Growth (Saccharomyces cerevisiae [2]) | Relative Growth (Saccharomyces cerevisiae [3]) |
| --- | --- | --- | --- |
| O=[N+]([O-])c1ccc(C=NNc2nc3ccccc3[nH]2)cc1 | -0.6981 | -1.0011 | -1.0063 |
| OC1=C2C(=Nc3ccccc3SC2c2ccccc2)c2ccccc21 (configuration not stated) | -0.0053 | -0.1585 | -0.0669 |
| Cc1cc(C)cc(Nc2cc(C)nc3nc(C(F)(F)F)nn23)c1 | -0.0343 | 0.0866 | -0.0322 |
| CCN(CC)c1ccc(NC(=O)c2cccs2)cc1 | -0.0445 | -0.1938 | -0.4168 |
| O=C(CSc1ccc2nnc(-c3cccc(F)c3)n2n1)Nc1ccc2c(c1)OCO2 | -0.0335 | -0.0662 | -0.3285 |
| COc1ccccc1CNC(=O)CCn1c(=O)[nH]c2ccsc2c1=O | -0.0638 | 0.2472 | -0.0445 |
| CCCc1c(C)nc2ccccc2c1O | -0.0347 | -0.1078 | -0.1372 |
| O=C(Nc1cccc(C(F)(F)F)c1)c1cc(Cl)ccc1O | -0.651 | -1.0097 | -1.011 |
| COc1ccc(C2=C(c3ccc(OC)cc3)C3(c4ccccc4)C(=O)C2(c2ccccc2)C2C(=O)N(c4ccc(C)cc4)C(=O)C23)cc1 (configuration not stated) | 0.0057 | -0.018 | -0.0687 |
| CCOC(=O)C1CCN(C(=O)CN2C(=O)c3ccccc3C2c2c[nH]c3ccccc23)CC1 (configuration not stated) | -1.0024 | -0.2514 | -0.5143 |
| CCOc1c(Br)cc(C2C(C(=O)OC)=CN(C)C=C2C(=O)OC)cc1OC | -0.0344 | 0.0663 | -0.0572 |
| COc1ccc(CCN2CCC(CN(C)Cc3cnn(-c4ccccc4)c3)CC2)cc1 | 0.0613 | -0.2117 | -0.844 |
| COc1ccc(-c2nonc2NC(=O)c2cccc(C)c2)cc1OC | -0.0571 | 0.0614 | -0.0764 |
| CCOC(=O)c1cnc2c(C)cccc2c1Nc1ccc(C(C)=O)cc1 | -0.0046 | -0.0028 | -0.0453 |
| Cc1ccc2nc(C)cc(Nc3cccc(C(F)(F)F)c3)c2c1.Cl | -0.0219 | -0.0826 | -0.1571 |
| Oc1c(C(Nc2ccccn2)c2cccc(Oc3ccccc3)c2)ccc2cccnc12 (configuration not stated) | -0.9969 | 0.0038 | -0.1371 |
| CCOc1ccc(C2N(C)c3ccccc3N2C)cc1 | -0.6451 | -1.0114 | -1.002 |
| CC(C)(C)CC(C)(C)NCC(O)COc1ccc2c(c1)CCC2.Cl (configuration not stated) | -0.08 | -0.0891 | -0.1886 |
| CCOc1cc2c(cc1OCC)C(c1cc(Cl)c(O)c(OCC)c1)NCC2 (configuration not stated) | 0.0051 | 0.0679 | -0.0121 |
| COc1cc(OC)c(N(C)C(=O)c2cc3c(s2)-c2ccccc2S(=O)(=O)C3)cc1Cl | -0.2124 | -0.1342 | -0.2428 |
| O=C(Nc1ccc(-c2nc3cc4ccccc4cc3[nH]2)cc1)c1cccc(Br)c1 | -0.1256 | 0.0231 | 0.0139 |
| CCC(O)c1ccc(Br)cc1NC(=O)c1cccc(Cl)c1 (configuration not stated) | 0.0228 | 0.0885 | 0.102 |
